Holding throughout (format): biochemical
For one assay, the target named is T1, HCMV polymerase (Human cytomegalovirus, UniProt P08546).
T1 construct: made in house; host or cells: recombinant baculovirus-infected SF-9 cells
Put plainly: HCMV polymerase scintillation proximity assay (SPA). Here is the method:
The HCMV polymerase assay is performed using a scintillation proximity assay (SPA) as described in several references, such as N. D. Cook, et al., Pharmaceutical Manufacturing International, pages 49-53 (1992); KY Takeuchi, Laboratory Practice, September issue (1992); U.S. Pat. No. 4,568,649 (1986); which are incorporated by reference herein. Reactions are performed in 96-well plates. The assay is conducted in 100 yl volume with 5.4 mM HEPES (pH 7.5), 11.7 mM KCl, 4.5 mM MgCl2, 0.36 mg/ml BSA, and 90 nM ^3H-dTTP. Assays are run with and without CHAPS, (3-[(3-Cholamidopropyl)-dimethylammonio]-1-propane-sulfonate) at a final concentration of 2 mM. HCMV polymerase is diluted in enzyme dilution buffer containing 50% glycerol, 250 mM NaCl, 10 mM HEPES (pH 7.5), 100 μg/ml BSA, and 0.01% sodium azide. The HCMV polymerase, which is expressed in recombinant baculovirus-infected SF-9 cells and purified according to literature procedures, is added at 10% (or 10 μl) of the final reaction volume, i.e., 100 μl. Compounds are diluted in 50% DMSO and 10 μl are added to each well. Control wells contain an equivalent concentration of DMSO. Unless noted otherwise, reactions are initiated via the addition of 6 nM biotinylated poly(dA)-oligo(dT) template/primer to reaction mixtures containing the enzyme, substrate, and compounds of interest. Plates are incubated in a 25° C. or 37° C. H2O bath and terminated via the addition of 40 μl/reaction of 0.5 M EDTA (pH 8) per well. Reactions are terminated within the time-frame during which substrate incorporation is linear and varied depending upon the enzyme and conditions used, i.e., 30 min. for HCMV polymerase. Ten (10) μl of streptavidin-SPA beads (20 mg/ml in PBS/10% glycerol) are added following termination of the reaction. Plates are incubated 10 min. at 37° C., then equilibrated to room temperature, and counted on a Packard Topcount. Linear regressions are performed and IC50's are calculated using computer software.
A modified version of the above HCMV polymerase assay is performed as described above, but with the following changes: Compounds are diluted in 100% DMSO until final dilution into assay buffer. In the previous assay, compounds are diluted in 50% DMSO. 4.5 mM Dithiothreitol (DTT) is added to the polymerase buffer.
All results are listed as Polymerase IC50 ([…]) values. In Table 1, the term “n.d.” refers to activity data not determined.

Another assay deals with HSV polymerase (Human herpesvirus 1, UniProt P04293). Put plainly: HSV polymerase assay (Table 1).
Sequence of HSV polymerase (P04293 whole entry): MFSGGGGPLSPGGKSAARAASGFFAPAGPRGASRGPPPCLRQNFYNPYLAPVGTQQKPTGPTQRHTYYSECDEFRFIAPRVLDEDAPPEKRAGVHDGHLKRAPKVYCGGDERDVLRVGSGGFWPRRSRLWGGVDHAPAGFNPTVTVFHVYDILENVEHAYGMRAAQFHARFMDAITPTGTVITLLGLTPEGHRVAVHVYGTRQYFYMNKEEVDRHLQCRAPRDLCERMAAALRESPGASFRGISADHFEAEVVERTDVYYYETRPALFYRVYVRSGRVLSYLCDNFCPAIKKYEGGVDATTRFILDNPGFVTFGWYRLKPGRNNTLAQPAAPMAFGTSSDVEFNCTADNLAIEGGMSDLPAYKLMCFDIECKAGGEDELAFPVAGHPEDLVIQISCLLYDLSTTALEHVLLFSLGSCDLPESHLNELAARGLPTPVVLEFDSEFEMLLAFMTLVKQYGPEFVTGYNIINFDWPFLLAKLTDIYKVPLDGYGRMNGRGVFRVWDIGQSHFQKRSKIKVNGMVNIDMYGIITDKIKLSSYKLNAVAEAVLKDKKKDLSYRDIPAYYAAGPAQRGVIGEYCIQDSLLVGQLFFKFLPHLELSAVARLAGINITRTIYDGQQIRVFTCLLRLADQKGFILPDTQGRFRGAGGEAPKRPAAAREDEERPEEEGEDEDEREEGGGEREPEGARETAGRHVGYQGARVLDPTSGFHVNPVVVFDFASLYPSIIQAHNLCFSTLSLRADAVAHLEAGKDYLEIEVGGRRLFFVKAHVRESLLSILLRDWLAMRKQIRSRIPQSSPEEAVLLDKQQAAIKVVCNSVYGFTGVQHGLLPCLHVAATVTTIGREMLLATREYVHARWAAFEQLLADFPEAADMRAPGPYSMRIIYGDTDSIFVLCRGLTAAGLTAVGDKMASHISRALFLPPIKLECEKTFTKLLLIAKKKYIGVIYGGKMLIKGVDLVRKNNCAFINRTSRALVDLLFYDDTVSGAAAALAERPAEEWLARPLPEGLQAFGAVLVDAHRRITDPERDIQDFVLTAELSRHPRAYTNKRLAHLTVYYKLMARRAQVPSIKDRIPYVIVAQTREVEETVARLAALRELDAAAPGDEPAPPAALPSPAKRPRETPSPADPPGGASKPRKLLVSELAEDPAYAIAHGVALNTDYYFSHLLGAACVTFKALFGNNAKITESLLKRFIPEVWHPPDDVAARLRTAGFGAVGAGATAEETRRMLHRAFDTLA
Another assay deals with VZV polymerase (Varicella-zoster virus, UniProt P09252). Put plainly: VZV polymerase assay (Table 1).
Sequence of VZV polymerase (P09252 whole entry): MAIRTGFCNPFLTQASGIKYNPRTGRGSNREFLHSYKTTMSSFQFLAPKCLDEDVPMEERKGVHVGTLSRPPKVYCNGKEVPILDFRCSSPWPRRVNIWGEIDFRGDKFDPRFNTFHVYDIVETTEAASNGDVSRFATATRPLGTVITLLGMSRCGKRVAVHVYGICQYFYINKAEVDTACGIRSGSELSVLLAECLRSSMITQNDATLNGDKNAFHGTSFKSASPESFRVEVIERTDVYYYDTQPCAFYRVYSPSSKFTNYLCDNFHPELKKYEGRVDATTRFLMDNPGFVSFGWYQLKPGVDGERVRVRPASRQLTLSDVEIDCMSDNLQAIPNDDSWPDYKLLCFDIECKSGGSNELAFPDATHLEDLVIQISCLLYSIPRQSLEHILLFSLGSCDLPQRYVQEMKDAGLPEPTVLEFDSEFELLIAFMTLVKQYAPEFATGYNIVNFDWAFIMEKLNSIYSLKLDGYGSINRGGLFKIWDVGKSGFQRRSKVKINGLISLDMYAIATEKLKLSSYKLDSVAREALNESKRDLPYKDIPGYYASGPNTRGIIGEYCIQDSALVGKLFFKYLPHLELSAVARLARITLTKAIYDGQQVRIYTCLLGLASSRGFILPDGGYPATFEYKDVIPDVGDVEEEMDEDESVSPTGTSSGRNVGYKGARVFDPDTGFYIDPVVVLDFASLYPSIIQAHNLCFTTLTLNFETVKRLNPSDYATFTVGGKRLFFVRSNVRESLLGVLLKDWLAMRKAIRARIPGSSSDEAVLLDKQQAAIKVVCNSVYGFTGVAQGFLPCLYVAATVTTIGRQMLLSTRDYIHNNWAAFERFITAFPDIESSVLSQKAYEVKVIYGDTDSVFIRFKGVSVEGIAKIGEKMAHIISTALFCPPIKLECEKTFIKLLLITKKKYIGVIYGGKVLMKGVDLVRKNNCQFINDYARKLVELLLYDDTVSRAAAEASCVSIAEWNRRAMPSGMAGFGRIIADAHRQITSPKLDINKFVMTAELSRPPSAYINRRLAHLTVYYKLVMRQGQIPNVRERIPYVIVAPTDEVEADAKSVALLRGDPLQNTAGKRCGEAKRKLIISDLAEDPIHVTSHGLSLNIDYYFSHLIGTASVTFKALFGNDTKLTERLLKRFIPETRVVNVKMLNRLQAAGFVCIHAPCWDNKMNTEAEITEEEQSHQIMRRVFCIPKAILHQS
Where [1] appears, read: HCMV polymerase, SPA, read-out: Polymerase IC50 HCMV.
Where [2] appears, read: HSV polymerase, read-out: Polymerase IC50 HSV.
Setting [3] is: VZV polymerase, read-out: Polymerase IC50 VZV.

Where two headings read alike, the source gives them in different places.

T1 sequence (P08546 whole entry): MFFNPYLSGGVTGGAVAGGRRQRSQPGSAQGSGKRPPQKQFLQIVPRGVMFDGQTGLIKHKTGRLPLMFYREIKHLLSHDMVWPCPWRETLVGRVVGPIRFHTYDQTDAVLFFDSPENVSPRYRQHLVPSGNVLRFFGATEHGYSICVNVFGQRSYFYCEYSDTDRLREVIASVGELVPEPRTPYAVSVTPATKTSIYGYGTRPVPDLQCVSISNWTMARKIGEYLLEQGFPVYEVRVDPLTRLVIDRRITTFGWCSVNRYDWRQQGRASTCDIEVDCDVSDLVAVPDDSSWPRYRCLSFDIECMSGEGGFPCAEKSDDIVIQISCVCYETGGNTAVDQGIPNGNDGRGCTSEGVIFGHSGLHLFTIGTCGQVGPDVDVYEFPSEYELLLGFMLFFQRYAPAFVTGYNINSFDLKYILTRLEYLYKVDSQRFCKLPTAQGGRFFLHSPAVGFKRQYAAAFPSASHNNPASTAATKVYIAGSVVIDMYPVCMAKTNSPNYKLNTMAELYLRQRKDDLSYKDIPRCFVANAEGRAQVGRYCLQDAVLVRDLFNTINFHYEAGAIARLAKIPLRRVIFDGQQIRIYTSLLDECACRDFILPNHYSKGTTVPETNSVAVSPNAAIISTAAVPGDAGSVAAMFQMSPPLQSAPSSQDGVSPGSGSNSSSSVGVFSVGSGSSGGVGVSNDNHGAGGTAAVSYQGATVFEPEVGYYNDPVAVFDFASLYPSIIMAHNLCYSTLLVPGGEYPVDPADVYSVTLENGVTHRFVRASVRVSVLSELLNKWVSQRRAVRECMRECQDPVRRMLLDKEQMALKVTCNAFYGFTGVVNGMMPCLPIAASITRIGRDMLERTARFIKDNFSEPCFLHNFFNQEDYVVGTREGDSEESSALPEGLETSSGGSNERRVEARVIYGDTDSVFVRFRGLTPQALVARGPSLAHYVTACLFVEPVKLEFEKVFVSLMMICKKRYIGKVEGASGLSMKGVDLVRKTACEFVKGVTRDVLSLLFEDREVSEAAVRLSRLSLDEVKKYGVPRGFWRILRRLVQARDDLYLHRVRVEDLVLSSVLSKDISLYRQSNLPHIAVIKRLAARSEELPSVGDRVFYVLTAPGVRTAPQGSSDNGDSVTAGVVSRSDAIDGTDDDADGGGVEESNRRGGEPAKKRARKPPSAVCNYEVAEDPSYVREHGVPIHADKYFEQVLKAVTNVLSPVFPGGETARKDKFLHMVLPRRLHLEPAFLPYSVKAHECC

Consider `CCCn1cc(C(=O)NCc2ccc(Cl)cc2)c(=O)c2cc(CN(C)CC(O)c3cc4ccccc4o3)sc21` (racemic) [Example 23, rac-2-(((2-(1-Benzofuran-2-yl)-2-hydroxyethyl)(methyl)amino)methyl)-N-(4-chlorobenzyl)-7-propyl-4-oxo-4,7-dihydrothieno[2,3-b]pyridine-5-carboxamide], for which the IC50 at HCMV polymerase (setting [1]) was determined as 0.26 µM.
On to `CN(Cc1cc2c(=O)c(C(=O)NCc3ccc(Cl)cc3)cn(C)c2s1)C[C@@H](O)c1ccco1` [Example 2, (+)—N-(4-Chlorobenzyl)-2-((((R)-2-(2-furyl)-2-hydroxyethyl)(methyl)amino)-methyl)-7-methyl-4-oxo-4,7-dihydrothieno [2,3-b]pyridine-5-carboxamide], for which the IC50 at HCMV polymerase (setting [1]) turned out to be 0.04 µM; at HSV polymerase (setting [2]), 0.09 µM; on VZV polymerase (setting [3]), 0.03 µM.
On HCMV polymerase, `CN(Cc1cc2c(=O)c(C(=O)NCc3ccc(Cl)cc3)cn(CCCO)c2s1)CC(O)c1cc2ccccc2o1` (racemic) [Example 28, rac-2-(((2-(1-Benzofuran-2-yl)-2-hydroxyethyl)(methyl)amino)methyl)-N-(4-chlorobenzyl)-7-(3-hydroxypropyl)-4-oxo-4,7-dihydrothieno[2,3-b]pyridine-5-carboxamide] returned an IC50 of 0.3 µM.
As for `CCCn1cc(C(=O)NCc2ccc(Cl)cc2)c(=O)c2cc(CN(C)C[C@@H](O)c3ccco3)sc21` [Example 32, N-(4-Chlorobenzyl)-2-((((2R)-2-(2-furyl)-2-hydroxyethyl)(methyl)amino)methyl)-4-oxo-7-propyl-4,7-dihydrothieno[2,3-b]pyridine-5-carboxamide], the concentration for half-maximal inhibition (IC50) at HCMV polymerase (setting [1]) was found to be 0.18 µM; at HSV polymerase (setting [2]) it was 0.74 µM; at VZV polymerase (setting [3]) it was 0.22 µM.
On to `CN(Cc1cc2c(=O)c(C(=O)NCc3ccc(Cl)cc3)cn(CCO)c2s1)CC(O)c1cc2ccccc2o1` (racemic) [Example 29, rac-2-(((2-(1-Benzofuran-2-yl)-2-hydroxyethyl)(methyl)amino)methyl)-N-(4-chlorobenzyl)-7-(2-hydroxyethyl)-4-oxo-4,7-dihydrothieno[2,3-b]pyridine-5-carboxamide], for which the IC50 at HCMV polymerase (setting [1]) was determined as 0.6 µM.
On to `CN(Cc1cc2c(=O)c(C(=O)NCc3ccc(Cl)cc3)cn(C)c2s1)CC(O)c1ccc(Cl)o1` (centres unmarked) [Example 33, N-(4-Chlorobenzyl)-2-(((2-(5-chloro-2-furyl)-2-hydroxyethyl)(methyl)amino)-methyl)-7-methyl-4-oxo-4,7-dihydrothieno[2,3-b]pyridine-5-carboxamide], for which the IC50 on HCMV polymerase (setting [1]) was found to be 0.02 µM; on HSV polymerase (setting [2]) it was 0.08 µM.
Consider `CN(Cc1cc2c(=O)c(C(=O)NCc3ccc(Cl)cc3)cn(CCO)c2s1)C[C@@H](O)c1ccco1` [Example 34, N-(4-Chlorobenzyl)-2-((((2R)-2-(2-furyl)-2-hydroxyethyl)(methyl)amino)methyl)-7-(2-hydroxyethyl)-4-oxo-4,7-dihydrothieno[2,3-b]pyridine-5-carboxamide], for which the IC50 stood at 0.24 µM at HCMV polymerase (setting [1]), 1.08 µM on HSV polymerase (setting [2]) and 0.34 µM at VZV polymerase (setting [3]).
`CN(Cc1cc2c(=O)c(C(=O)NCc3ccc(Cl)cc3)cn(C)c2s1)CC(O)c1ccco1` (racemic) [Example 1, rac-N-(4-Chlorobenzyl)-2-(((2-(2-furyl)-2-hydroxyethyl)(methyl)amino)methyl)-7-methyl-4-oxo-4,7-dihydrothieno[2,3-b]pyridine-5-carboxamide]: the figures for the IC50 at HCMV polymerase (setting [1]), on HSV polymerase (setting [2]) and on VZV polymerase (setting [3]) were 0.08 µM, 0.22 µM and 0.06 µM, respectively.
With `CN(Cc1cc2c(=O)c(C(=O)NCc3ccc(Cl)cc3)cn(CCOCCO)c2s1)C[C@@H](O)c1ccco1` [Example 35, N-(4-Chlorobenzyl)-2-((((2R)-2-(2-furyl)-2-hydroxyethyl)(methyl)amino)methyl)-7-(2-(2-hydroxyethoxy)ethyl)-4-oxo-4,7-dihydrothieno[2,3-b]pyridine-5-carboxamide], the IC50 on HCMV polymerase (setting [1]) is 0.56 µM.
Take `CN(Cc1cc2c(=O)c(C(=O)NCc3ccc(Cl)cc3)cn(C)c2s1)C[C@@H](O)c1ccn[nH]1` (single isomer, unassigned) [Example 19]: the results for the IC50 on HCMV polymerase (setting [1]), on HSV polymerase (setting [2]) and on VZV polymerase (setting [3]) were 0.21 µM, 0.78 µM and 0.29 µM, respectively.
With `CN(Cc1cc2c(=O)c(C(=O)NCc3ccc(Cl)cc3)cn(C)c2s1)CC(O)c1nc2ccccc2s1` (racemic) [Example 17, rac-2-(((2-(1,3-Benzothiazol-2-yl)-2-hydroxyethyl)(methyl)amino)methyl)-N-(4-chlorobenzyl)-7-methyl-4-oxo-4,7-dihydrothieno[2,3-b]pyridine-5-carboxamide], the IC50 on HCMV polymerase (setting [1]) was 0.12 µM; at HSV polymerase (setting [2]), 0.39 µM; on VZV polymerase (setting [3]), 0.11 µM.
For `COCCn1cc(C(=O)NCc2ccc(Cl)cc2)c(=O)c2cc(CN(C)C[C@@H](O)c3ccco3)sc21` [Example 21, N-(4-Chlorobenzyl)-2-((((2R)-2-(2-furyl)-2-hydroxyethyl)(methyl)amino)methyl)-7-(2-methoxyethyl)-4-oxo-4,7-dihydrothieno[2,3-b]pyridine-5-carboxamide], the IC50 on HCMV polymerase (setting [1]) is 0.35 µM.
As for `CN(Cc1cc2c(=O)c(C(=O)NCc3ccc(Cl)cc3)cn(CCCO)c2s1)C[C@@H](O)c1ccco1` [Example 27, N-(4-Chlorobenzyl)-2-((((2R)-2-(2-furyl)-2-hydroxyethyl)(methyl)amino)methyl)-7-(3-hydroxypropyl)-4-oxo-4,7-dihydrothieno[2,3-b]pyridine-5-carboxamide], the values for the IC50 against HCMV polymerase, against HSV polymerase and against VZV polymerase were 0.36 µM, 0.59 µM and 0.28 µM, respectively.
For `CN(Cc1cc2c(=O)c(C(=O)NCc3ccc(Cl)cc3)cn(CC(O)CO)c2s1)CC(O)c1cc2ccccc2o1` (racemic) [Example 25, rac-2-(((2-(1-Benzofuran-2-yl)-2-hydroxyethyl)(methyl)amino)methyl)-N-(4-chlorobenzyl)-7-(2,3-dihydroxypropyl)-4-oxo-4,7-dihydrothieno[2,3-b]pyridine-5-carboxamide], the IC50 at HCMV polymerase (setting [1]) was 1.8 µM.
As to `CCn1cc(C(=O)NCc2ccc(Cl)cc2)c(=O)c2cc(CN(C)CC(O)c3cc4ccccc4o3)sc21` (racemic) [Example 22, rac-2-(((2-(1-Benzofuran-2-yl)-2-hydroxyethyl)(methyl)amino)methyl)-N-(4-chlorobenzyl)-7-ethyl-4-oxo-4,7-dihydrothieno[2,3-b]pyridine-5-carboxamide], the IC50 amounted to 0.09 µM on HCMV polymerase (setting [1]), 0.17 µM on HSV polymerase (setting [2]) and 0.08 µM at VZV polymerase (setting [3]).
In the case of `CN(Cc1cc2c(=O)c(C(=O)NCc3ccc(Cl)cc3)cn(CC(O)CO)c2s1)C[C@@H](O)c1ccco1` (stereo partly drawn) [Example 26, N-(4-Chlorobenzyl)-7-(2,3-dihydroxypropyl)-2-((((2R)-2-(2-furyl)-2-hydroxy-ethyl)(methyl)amino)methyl)-4-oxo-4,7-dihydrothieno[2,3-b]pyridine-5-carboxamide], the values for the IC50 on HCMV polymerase (setting [1]), at HSV polymerase (setting [2]) and at VZV polymerase (setting [3]) were 0.15 µM, 0.54 µM and 0.33 µM, respectively.
Taken in the same sequence, the figures for `CN(Cc1cc2c(=O)c(C(=O)NCc3ccc(Cl)cc3)cn(C)c2s1)CC(O)c1cccs1` (racemic) [Example 6, rac-N-(4-Chlorobenzyl)-2-(((2-hydroxy-2-thien-2-ylethyl)(methyl)amino)methyl)-7-methyl-4-oxo-4,7-dihydrothieno[2,3-b]pyridine-5-carboxamide] were 0.17 µM, 0.47 µM and 0.15 µM.

Values taken from US20050049245A1, “Heteroaryl-ethanolamine derivatives as antiviral agents” (priority 2002, published 2005).
